Measurements taken from ChEMBL document CHEMBL1137563, “3,5-bis(3'-indolyl)pyrazoles, analogues of marine alkaloid nortopsentin: synthesis and antitumor properties” (2007).
Calls of active or inactive are those of the source. The rule behind the calls is not given here.

How the values were obtained:
[1] = test system: NCI/ADR-RES; test: Antitumor activity against NCI/ADRRES cells; assay type: functional; details: Homo sapiens
[2] = test system: BT-549; test: Antitumor activity against BT549 cells; assay type: functional; details: Homo sapiens
[3] = test system: NCI-H460; test: Antitumor activity against NCI-H460 cells; assay type: functional; details: Homo sapiens
[4] = test system: T47D; test: Antitumor activity against T47D cells; assay type: functional; details: Homo sapiens
[5] = test system: KM12; test: Antitumor activity against KM12 cells; assay type: functional; details: Homo sapiens
[6] = test system: MDA-MB-231; test: Antitumor activity against MDA-MB-231 cells; assay type: functional; details: Homo sapiens
[7] = test system: SF-268; test: Antitumor activity against SF268 cells; assay type: functional; details: Homo sapiens
[8] = test system: UO-31; test: Antitumor activity against UO31 cells; assay type: functional; details: Homo sapiens
[9] = test system: COLO 205; test: Antitumor activity against COLO205 cells; assay type: functional; details: Homo sapiens
[10] = test system: SK-OV-3; test: Antitumor activity against SKOV3 cells; assay type: functional; details: Homo sapiens
[11] = test system: ACHN; test: Antitumor activity against ACHN cells; assay type: functional; details: Homo sapiens
[12] = test system: SNB-75; test: Antitumor activity against SNB75 cells; assay type: functional; details: Homo sapiens
[13] = test system: NCI-H322M; test: Antitumor activity against NCI-H322M cells; assay type: functional; details: Homo sapiens
[14] = test system: SF-295; test: Antitumor activity against SF295 cells; assay type: functional; details: Homo sapiens
[15] = test system: SK-MEL-2; test: Antitumor activity against SK-MEL-2 cells; assay type: functional; details: Homo sapiens
[16] = test system: OVCAR-4; test: Antitumor activity against OVCAR4 cells; assay type: functional; details: Homo sapiens
[17] = test system: RXF 393; test: Antitumor activity against RXF393 cells; assay type: functional; details: Homo sapiens
[18] = test system: MOLT-4; test: Antitumor activity against MOLT4 cells; assay type: functional; details: Homo sapiens
[19] = test system: HOP-92; test: Antitumor activity against HOP92 cells; assay type: functional; details: Homo sapiens
[20] = test system: NCI-H522; test: Antitumor activity against NCI-H522 cells; assay type: functional; details: Homo sapiens
[21] = test system: HCT-15; test: Antitumor activity against HCT15 cells; assay type: functional; details: Homo sapiens
[22] = test system: HOP-62; test: Antitumor activity against HOP62 cells; assay type: functional; details: Homo sapiens
[23] = test system: CAKI-1; test: Antitumor activity against CAKI1 cells; assay type: functional; details: Homo sapiens
[24] = test system: OVCAR-8; test: Antitumor activity against OVCAR8 cells; assay type: functional; details: Homo sapiens
[25] = test system: OVCAR-5; test: Antitumor activity against OVCAR5 cells; assay type: functional; details: Homo sapiens
[26] = test system: SW-620; test: Antitumor activity against SW620 cells; assay type: functional; details: Homo sapiens
[27] = test system: 786-0; test: Antitumor activity against 7860 cells; assay type: functional; details: Homo sapiens
[28] = test system: UACC-257; test: Antitumor activity against UACC257 cells; assay type: functional; details: Homo sapiens
[29] = test system: MCF7; test: Antitumor activity against MCF7 cells; assay type: functional; details: Homo sapiens
[30] = test system: Hs-578T; test: Antitumor activity against HS578T cells; assay type: functional; details: Homo sapiens
[31] = test system: NCI-H23; test: Antitumor activity against NCI-H23 cells; assay type: functional; details: Homo sapiens
[32] = test system: M14; test: Antitumor activity against M14 cells; assay type: functional; details: Homo sapiens
[33] = test system: IGROV-1; test: Antitumor activity against IGROV1 cells; assay type: functional; details: Homo sapiens
[34] = test system: SK-MEL-28; test: Antitumor activity against SK-MEL-28 cells; assay type: functional; details: Homo sapiens
[35] = test system: SR; test: Antitumor activity against SR cells; assay type: functional; details: Homo sapiens
[36] = test system: LOX IMVI; test: Antitumor activity against LOX-IMVI cells; assay type: functional; details: Homo sapiens
[37] = test system: EKVX; test: Antitumor activity against EKVX cells; assay type: functional; details: Homo sapiens
[38] = test system: SK-MEL-5; test: Antitumor activity against SK-MEL-5 cells; assay type: functional; details: Homo sapiens
[39] = test system: HCT-116; test: Antitumor activity against HCT116 cells; assay type: functional; details: Homo sapiens
[40] = test system: Malme-3M; test: Antitumor activity against MALME-3M cells; assay type: functional; details: Homo sapiens
[41] = test system: SNB-19; test: Antitumor activity against SNB19 cells; assay type: functional; details: Homo sapiens
[42] = test system: TK-10; test: Antitumor activity against TK10 cells; assay type: functional; details: Homo sapiens
[43] = test system: OVCAR-3; test: Antitumor activity against OVCAR-3 cells; assay type: functional; details: Homo sapiens
[44] = test system: DU-145; test: Antitumor activity against DU145 cells; assay type: functional; details: Homo sapiens
[45] = test system: U-251; test: Antitumor activity against U251 cells; assay type: functional; details: Homo sapiens
[46] = test system: SF-539; test: Antitumor activity against SF539 cells; assay type: functional; details: Homo sapiens
[47] = test system: SN12C; test: Antitumor activity against SN12C cells; assay type: functional; details: Homo sapiens
[48] = Antitumor activity against HL60(TB) cells; assay type: functional, HL-60(TB); details: Homo sapiens, HL-60
[49] = test system: A498; test: Antitumor activity against A498 cells; assay type: functional; details: Homo sapiens
[50] = target: DNA topoisomerase 2-alpha (Homo sapiens) (UniProt P11388); test: Inhibition of human recombinant topoisomerase 2-mediated relaxation of supercoiled plasmid pBR322 DNA at 50 uM
[51] = test system: A549; test: Antitumor activity against A549 cells; assay type: functional; details: Homo sapiens
[52] = test system: UACC-62; test: Antitumor activity against UACC62 cells; assay type: functional; details: Homo sapiens
[53] = test system: PC-3; test: Antitumor activity against PC3 cells; assay type: functional; details: Homo sapiens
[54] = test system: HCC 2998; test: Antitumor activity against HCC2998 cells; assay type: functional; details: Homo sapiens
[55] = test system: CCRF-CEM; test: Antitumor activity against CCRF-CEM cells; assay type: functional; details: Homo sapiens
[56] = test system: K562; test: Antitumor activity against K562 cells; assay type: functional; details: Homo sapiens
[57] = test system: HT-29; test: Antitumor activity against HT29 cells; assay type: functional; details: Homo sapiens
[58] = test system: NCI-H226; test: Antitumor activity against NCI-H226 cells; assay type: functional; details: Homo sapiens
[59] = test system: RPMI-8226; test: Antitumor activity against RPMI8226 cells; assay type: functional; details: Homo sapiens
[60] = target: DNA topoisomerase 2-alpha (Homo sapiens) (UniProt P11388); test: Inhibition of human recombinant topoisomerase 2-mediated relaxation of supercoiled plasmid pBR322 DNA at 100 uM
[61] = test system: MDA-MB-435; test: Antitumor activity against MDA-MB-435 cells; assay type: functional; details: Homo sapiens
[62] = target: DNA topoisomerase 2-alpha (Homo sapiens) (UniProt P11388); test: Inhibition of human recombinant topoisomerase 2-mediated relaxation of supercoiled plasmid pBR322 DNA at 8 uM
[63] = read-out: LC50 (the source's name)

Sequence of DNA topoisomerase 2-alpha (Homo sapiens) (P11388 whole entry): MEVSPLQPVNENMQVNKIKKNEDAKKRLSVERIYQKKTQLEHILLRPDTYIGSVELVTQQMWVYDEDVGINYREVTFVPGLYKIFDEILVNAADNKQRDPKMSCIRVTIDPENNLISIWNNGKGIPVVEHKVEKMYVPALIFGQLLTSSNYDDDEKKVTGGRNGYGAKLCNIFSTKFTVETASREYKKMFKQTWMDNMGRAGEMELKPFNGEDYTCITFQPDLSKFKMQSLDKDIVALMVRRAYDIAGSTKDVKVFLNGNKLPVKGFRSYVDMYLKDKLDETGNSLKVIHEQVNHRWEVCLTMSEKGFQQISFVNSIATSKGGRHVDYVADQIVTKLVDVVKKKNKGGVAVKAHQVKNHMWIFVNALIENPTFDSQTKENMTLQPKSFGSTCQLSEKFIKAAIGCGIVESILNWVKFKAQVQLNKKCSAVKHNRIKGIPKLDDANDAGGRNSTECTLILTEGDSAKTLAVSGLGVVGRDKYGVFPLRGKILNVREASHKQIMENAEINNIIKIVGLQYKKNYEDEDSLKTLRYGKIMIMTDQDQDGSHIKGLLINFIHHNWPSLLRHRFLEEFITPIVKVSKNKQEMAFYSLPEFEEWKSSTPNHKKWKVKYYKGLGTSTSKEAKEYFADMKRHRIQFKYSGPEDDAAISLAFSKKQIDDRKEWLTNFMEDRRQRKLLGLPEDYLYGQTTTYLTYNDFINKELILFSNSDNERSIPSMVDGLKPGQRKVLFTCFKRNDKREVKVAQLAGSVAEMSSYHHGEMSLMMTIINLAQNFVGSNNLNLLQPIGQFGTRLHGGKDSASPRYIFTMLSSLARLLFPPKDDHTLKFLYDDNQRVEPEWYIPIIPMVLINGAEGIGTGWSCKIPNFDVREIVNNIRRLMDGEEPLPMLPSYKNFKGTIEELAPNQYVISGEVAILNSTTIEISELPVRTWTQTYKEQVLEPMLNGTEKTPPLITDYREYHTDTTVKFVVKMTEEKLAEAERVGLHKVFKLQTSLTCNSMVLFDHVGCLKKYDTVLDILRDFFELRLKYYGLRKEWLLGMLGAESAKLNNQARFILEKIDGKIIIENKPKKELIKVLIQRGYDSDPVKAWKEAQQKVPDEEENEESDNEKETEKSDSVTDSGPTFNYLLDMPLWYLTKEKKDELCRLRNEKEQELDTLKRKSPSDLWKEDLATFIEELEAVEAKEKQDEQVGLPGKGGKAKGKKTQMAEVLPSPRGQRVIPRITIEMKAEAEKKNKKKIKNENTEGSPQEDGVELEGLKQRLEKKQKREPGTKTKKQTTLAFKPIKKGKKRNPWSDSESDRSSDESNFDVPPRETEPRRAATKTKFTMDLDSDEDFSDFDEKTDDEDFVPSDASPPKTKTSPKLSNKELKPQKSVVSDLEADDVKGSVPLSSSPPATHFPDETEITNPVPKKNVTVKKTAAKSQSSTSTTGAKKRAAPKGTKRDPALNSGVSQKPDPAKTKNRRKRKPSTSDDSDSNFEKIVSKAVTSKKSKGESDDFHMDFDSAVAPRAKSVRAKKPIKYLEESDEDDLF

SMILES: Cn1cc(-c2cc(-c3cn(C)c4ccccc34)[nH]n2)c2ccccc21
- GI50 [1]: 27.6 µM
- GI50 [2]: 15.9 µM
- GI50 [3]: 4.48 µM
- GI50 [4]: 79.7 µM
- GI50 [5]: 4.58 µM
- GI50 [6]: 8.06 µM
- GI50 [7]: 16 µM
- GI50 [8]: 37.6 µM
- GI50 [9]: 7.98 µM
- GI50 [10]: 31.6 µM
- GI50 [11]: 7.67 µM
- GI50 [12]: 18.4 µM
- GI50 [13]: > 100 µM
- GI50 [14]: 17.1 µM
- GI50 [15]: 57.5 µM
- GI50 [16]: 34.9 µM
- GI50 [17]: 14.7 µM
- GI50 [18]: 4.75 µM
- GI50 [19]: 2.06 µM
- GI50 [20]: 22.1 µM
- GI50 [21]: 8.68 µM
- GI50 [22]: 17.3 µM
- GI50 [23]: > 100 µM
- GI50 [24]: 28.8 µM
- GI50 [25]: > 100 µM
- GI50 [26]: > 100 µM
- GI50 [27]: 14.1 µM
- GI50 [28]: 80.6 µM
- GI50 [29]: 3.95 µM
- GI50 [30]: 18.5 µM
- GI50 [31]: 22 µM
- GI50 [32]: > 100 µM
- GI50 [33]: 8.9 µM
- GI50 [34]: > 100 µM
- GI50 [35]: 3.46 µM
- GI50 [36]: 5.38 µM
- GI50 [37]: 27.2 µM
- GI50 [38]: 13.1 µM
- GI50 [39]: 19 µM
- GI50 [40]: 93.1 µM
- GI50 [41]: 27 µM
- GI50 [42]: 37.4 µM
- GI50 [43]: 28.4 µM
- GI50 [44]: 15.6 µM
- GI50 [45]: 12.9 µM
- GI50 [46]: 16.2 µM
- GI50 [47]: 1.95 µM
- GI50 [48]: 15.4 µM
- GI50 [49]: 19.6 µM
- Activity [50]: Active
- GI50 [51]: 16.3 µM
- GI50 [52]: 16.4 µM
- GI50 [53]: 8.11 µM
- GI50 [54]: 4.74 µM
- GI50 [55]: 14.4 µM
- GI50 [56]: 42.1 µM
- GI50 [57]: 5.35 µM
- GI50 [58]: 19.8 µM
- GI50 [59]: 37.8 µM

SMILES: Cn1cc(-c2cc(-c3cn(C)c4ccc(Cl)cc34)[nH]n2)c2cc(Cl)ccc21
- GI50 [1]: 2.25 µM
- GI50 [2]: 2.03 µM
- GI50 [3]: 2.35 µM
- GI50 [4]: 4.06 µM
- GI50 [5]: 3.45 µM
- GI50 [6]: 2.95 µM
- GI50 [7]: 5.29 µM
- GI50 [8]: 3.01 µM
- GI50 [9]: 2.22 µM
- GI50 [10]: 5.81 µM
- GI50 [11]: 3.23 µM
- GI50 [12]: 4.25 µM
- GI50 [13]: 5.73 µM
- GI50 [14]: 2.52 µM
- GI50 [15]: 2.34 µM
- GI50 [16]: 5.82 µM
- GI50 [17]: 3.03 µM
- GI50 [18]: 1.55 µM
- GI50 [19]: 1.86 µM
- GI50 [20]: 1.75 µM
- GI50 [21]: 3.01 µM
- GI50 [22]: 7.98 µM
- GI50 [23]: 1.7 µM
- GI50 [24]: 4.03 µM
- GI50 [25]: 3.11 µM
- GI50 [26]: 3.52 µM
- GI50 [27]: 3.41 µM
- GI50 [28]: 4.27 µM
- Activity [60]: Active
- GI50 [29]: 2.64 µM
- GI50 [30]: 3.27 µM
- GI50 [31]: 2.49 µM
- GI50 [32]: 2.15 µM
- GI50 [33]: 2.55 µM
- GI50 [34]: 4.8 µM
- GI50 [35]: 2.36 µM
- GI50 [36]: 1.7 µM
- TGI [36]: 3.8 µM
- CC50 [36, 63]: 8.53 µM
- GI50 [37]: 3.15 µM
- GI50 [38]: 1.79 µM
- GI50 [39]: 3.82 µM
- GI50 [40]: 9.64 µM
- GI50 [41]: 4.09 µM
- GI50 [42]: 5.16 µM
- GI50 [43]: 4.41 µM
- GI50 [44]: 9.6 µM
- GI50 [45]: 3.37 µM
- GI50 [46]: 1.81 µM
- TGI [46]: 3.47 µM
- CC50 [46, 63]: 6.62 µM
- GI50 [48]: 4.45 µM
- GI50 [49]: 2.44 µM
- GI50 [61]: 2.99 µM
- GI50 [51]: 3.24 µM
- GI50 [52]: 1.63 µM
- GI50 [53]: 3.05 µM
- GI50 [54]: 1.71 µM
- TGI [54]: 3.84 µM
- CC50 [54, 63]: 8.63 µM
- GI50 [55]: 6.4 µM
- GI50 [56]: 2.78 µM
- GI50 [57]: 3.57 µM
- GI50 [58]: 5.29 µM
- GI50 [59]: 6.79 µM

SMILES: COc1cc(NS(C)(=O)=O)ccc1Nc1c2ccccc2nc2ccccc12
- Activity [62]: Active
